Consider 6 compounds from patent US20220324835A1 (Nurix Therapeutics, Inc., priority 2018, published 2022).

The IC50 is the concentration that inhibits the measured activity by half.

The subject of experiment [1] is T-cell. The experiment can be described thus: IL-2 secretion from T-cells co-stimulated with anti-CD3 and anti-CD28 antibody (Biological Example 2). The experiment is classed as cell-based, human. The settings on record: Homo sapiens, T-cell, primary human total T-cells, baseline = anti-CD3/anti-CD28 stimulated cells without inhibitor, read-out: IL-2 secretion, Anti-CD3/Anti-CD28 stimulation, fold change over baseline; for fold induction at 0.3 µM: 0.3 μM compound; for fold induction at 1 µM: 1 μM compound. The method, boiled down:
(§1)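 T-cells were stimulated with anti-CD3 antibody alone or with anti-CD28 antibody, in the presence or absence of Cbl-b inhibitor. IL-2 secretion or CD25 surface staining was measured, and values expressed as fold over the uninhibited baseline […].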

The subject of experiment [2] is T-cell. The experiment can be described thus: CD25 cell surface staining on T-cells co-stimulated with anti-CD3 and anti-CD28 antibody (Biological Example 2). The experiment is classed as cell-based, human. The settings on record: Homo sapiens, T-cell, primary human total T-cells, baseline = anti-CD3/anti-CD28 stimulated cells without inhibitor, read-out: CD25 staining, Anti-CD3/Anti-CD28 stimulation, fold change over baseline; for fold induction at 0.3 µM: 0.3 μM compound; for fold induction at 1 µM: 1 μM compound. In a few lines: as §1

Experiment [3] deals with T-cell. The experiment can be described thus: CD25 cell surface staining on T-cells stimulated with anti-CD3 antibody alone (Biological Example 2). The experiment is classed as cell-based. Particulars: 1 μM compound, primary human total T-cells, baseline = anti-CD3/anti-CD28 stimulated cells without inhibitor, read-out: CD25 staining, Anti-CD3 stimulation, fold change over baseline.

For experiment [4], the target named is T1, Cbl-b (Homo sapiens, UniProt Q13191). The experiment can be described thus: Cbl-b inhibition assay (Cbl-b activity assay, FRET, Biological Example 1; 100 mM NaCl, 60 nM Src kinase). The experiment is classed as biochemical. The settings on record: upper bound stated in text lists; read-out: IC50 values in the Cbl-b inhibition assay of Biological Example 1. The method, boiled down:
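Inhibitor activity is measured as reduced terbium-to-fluorescein FRET between streptavidin-terbium on biotinylated Cbl-b and Bodipy-fluorescein ubiquitin carried by an irreversible UbcH5B-Ub conjugate, binding of which depends on Src phosphorylation of Cbl-b.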

Experiment [5] relates to T-cell. The experiment can be described thus: IL-2 secretion from T-cells stimulated with anti-CD3 antibody alone (Biological Example 2). The experiment is classed as cell-based. Particulars: 1 μM compound, primary human total T-cells, read-out: IL-2 secretion, Anti-CD3 stimulation, fold change over baseline.
The target of experiment [6] is T1, Cbl-b. The experiment can be described thus: Cbl-b activity assay (Cbl-b inhibition assay), TR-FRET of Cbl-b interaction with UbcH5B-Ub. It is filed as biochemical. Particulars: assay buffer with 100 mM NaCl, 60 nM Src kinase; read-out: Cbl-b activity IC50. The method, boiled down: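 UbcH5B (C85K) conjugated to N-terminally Bodipy-Fluorescein-labeled ubiquitin served as the fluorescent partner. After compound preincubation, Src kinase (60 nM) with 1 mM ATP and 5 mM MgCl2 (final) was added for 1.5 h, followed by a further 1 h incubation. Some values were obtained with 50 mM NaCl and 30 nM Src.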
(TR-FRET usually uses a lanthanide donor and a delayed reading to cut background.)

T1 sequence (Q13191 36-427): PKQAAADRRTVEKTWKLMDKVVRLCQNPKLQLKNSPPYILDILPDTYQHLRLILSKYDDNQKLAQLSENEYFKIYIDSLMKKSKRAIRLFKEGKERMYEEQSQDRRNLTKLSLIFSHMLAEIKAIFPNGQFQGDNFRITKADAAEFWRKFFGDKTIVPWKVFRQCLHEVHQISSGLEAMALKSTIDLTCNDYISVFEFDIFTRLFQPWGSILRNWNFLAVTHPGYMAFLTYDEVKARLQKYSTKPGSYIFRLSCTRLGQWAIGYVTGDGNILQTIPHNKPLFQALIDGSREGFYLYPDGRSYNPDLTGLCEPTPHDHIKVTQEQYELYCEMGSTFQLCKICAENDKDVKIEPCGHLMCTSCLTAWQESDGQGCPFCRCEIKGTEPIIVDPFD

In the case of `Cc1cc(C(=O)Nc2cccc(C3(Cc4nocc4C)COC3)c2)nc(C2CC2)n1` [Compound 509, 2-cyclopropyl-6-methyl-N-(3-{3-[(4-methyl-1,2-oxazol-3-yl)methyl]oxetan-3-yl}phenyl)pyrimidine-4-carboxamide], the fold induction at 0.3 µM in experiment [1] was more than 7.5; in experiment [2], 1.31 to 1.5. Further, the fold induction at 1 µM in experiment [1] is more than 7.5; in experiment [2], 1.31 to 1.5; in experiment [3] it was more than 1; in experiment [5], more than 0.201. Further, the values for the IC50 in experiment [4] and in experiment [6] were not above 100 nM and less than 100 nM, respectively.

With `Cc1cc(C(=O)Nc2cccc(C(C)(C)Cc3nncn3C)c2)nc(C2CC2)n1` [Compound 511, 2-cyclopropyl-6-methyl-N-{3-[2-methyl-1-(4-methyl-1,2,4-triazol-3-yl)propan-2-yl]phenyl}pyrimidine-4-carboxamide], the fold induction at 0.3 µM in experiment [1] is 5 to 7.5; in experiment [2], 1.31 to 1.5. Further, the fold induction at 1 µM in experiment [1] is more than 7.5; in experiment [2] it was 1.31 to 1.5; in experiment [3], 0.801 to 1; in experiment [5] it was 0.101 to 0.15. For the same compound, the IC50 in experiment [4] was not above 100 nM; in experiment [6], less than 100 nM.

As to `Cn1cnnc1C(F)(F)[C@](C)(F)c1cccc(NC(=O)c2cc(CN3CC[C@H](F)C3)nc(C3CC3)n2)c1` [Compound 512, 2-cyclopropyl-6-{[(3S)-3-fluoropyrrolidin-1-yl]methyl}-N-{3-[(2R)-1,1,2-trifluoro-1-(4-methyl-1,2,4-triazol-3-yl)propan-2-yl]phenyl}pyrimidine-4-carboxamide], the fold induction at 0.3 µM in experiment [1] is 2.51 to 5; in experiment [2], 1.01 to 1.3. Further, the fold induction at 1 µM in experiment [1] is 5 to 7.5; in experiment [2], 1.01 to 1.3; in experiment [3] it was 0.801 to 1; in experiment [5], 0.051 to 0.1. Also, the figures for the IC50 in experiment [4] and in experiment [6] were not above 100 nM and less than 100 nM, respectively.

In the case of `Cn1cnnc1CC1(c2cccc(N3Cc4c(cc(OC5CC5)cc4C(F)(F)F)C3=O)c2)COC1` [Compound 513, 6-cyclopropoxy-2-(3-{3-[(4-methyl-1,2,4-triazol-3-yl)methyl]oxetan-3-yl}-phenyl)-4-(trifluoromethyl)-3H-isoindol-1-one], the fold induction at 0.3 µM lay within 1.01 to 2.5 in experiment [1] and 1.01 to 1.3 in experiment [2]. Further, the fold induction at 1 µM is 2.51 to 5 in experiment [1], 1.01 to 1.3 in experiment [2], more than 1 in experiment [3] and 0.151 to 0.2 in experiment [5]. The IC50 was not above 100 nM in experiment [4] and less than 100 nM in experiment [6].

As for `Cn1cnnc1CC1(c2cccc(N3Cc4c(cc(OC5CNC5)cc4C(F)(F)F)C3=O)c2)COC1` [Compound 514, 6-(azetidin-3-yloxy)-2-(3-{3-[(4-methyl-1,2,4-triazol-3-yl)methyl]oxetan-3-yl}phenyl)-4-(trifluoromethyl)-3H-isoindol-1-one], the fold induction at 0.3 µM in experiment [1] lay within 1.01 to 2.5; in experiment [2] it was 1.01 to 1.3. The fold induction at 1 µM in experiment [1] was 1.01 to 2.5; in experiment [2], 1.01 to 1.3; in experiment [3], 0.801 to 1; in experiment [5], 0.051 to 0.1. Besides, the half-inhibitory concentration (IC50) in experiment [4] was not above 100 nM; in experiment [6], less than 100 nM.

For the compound `Cc1cc(C(=O)Nc2cccc(-c3c(-c4nncn4C)cnn3C)c2)nc(C2CC2)n1` [Compound 522, 2-cyclopropyl-6-methyl-N-(3-(l-methyl-4-(4-methyl-4H-1,2,4-triazol-3-yl)-1H-pyrazol-5-yl)phenyl)pyrimidine-4-carboxamide], the fold induction at 0.3 µM lay within 1.01 to 2.5 in experiment [1] and 1.01 to 1.3 in experiment [2]. Moreover, the fold induction at 1 µM lay in the range of 1.01 to 2.5 in experiment [1], 1.01 to 1.3 in experiment [2], 0.601 to 0.8 in experiment [3] and 0.101 to 0.15 in experiment [5]. The half-inhibitory concentration (IC50) in experiment [4] was not above 300 nM; in experiment [6] it was 100 to 300 nM.
